From US20220177418A1, “INHIBITORS OF THE N-TERMINAL DOMAIN OF THE ANDROGEN RECEPTOR” (The Regents of the University of California, priority 2019, published 2022)

Legend:
Type in all cases: cell-based
[1] = test system: AR-expressing (AR-positive) prostate cancer cell lines; experiment: MTT cell viability assay, AR-positive cells; conditions: growth inhibition grade, 6 days
Description: (§1) FIGS. 3A-Q. Growth inhibitory effects of selected compounds. The indicated cells were exposed to the indicated compounds for 6 days; cell viability was measured by MTT assay, and specific reporters were assayed using literature conditions. Results were normalized to that of vehicle control. Experiments were performed in quadruplicate; results are means±s.d.
(§2) JN053 and JN138-JN156 were synthesized and tested in biochemical and cell biologic assays that have been described elsewhere. The JN compounds were first studied in cell viability assays (MTT assay) to determine the efficacy and specificity of the JN compounds for inhibition of prostate cancer cell lines.
(§3) The growth inhibitory effect of the JN compounds was assessed through the MTT assay, which assesses the total number of viable cells in vitro. These experiments were performed in AR-expressing (AR-positive) prostate cancer cell lines to assess on target effects and AR-null (AR-negative) prostate cancer cell lines to assess off target effects (i.e. specificity).
AR-expressing (AR-pos): • LNCaP: full length AR • LNCaP AR: overexpression of full length AR • 22Rv1: full length AR and ARV7 • VCaP: full length AR and ARV7 • CWR22: full length AR and ARV7

androgen receptor (AR) = biological target: T1, androgen receptor (AR) (Homo sapiens, UniProt P10275); experiment: MMTV-luciferase reporter assay (AR-dependent); conditions: inhibition grade
T1 construct: either endogenously or exogenously express the full-length AR and ARV7
Description: (§4) The biochemical assays include reporter assays to determine the activity and specificity of these JN compounds to inhibit the transcriptional activity of the androgen receptor (AR). […] The reporter assays were performed in replicates and across a wide range of concentrations (generally […]).
(§5) The reporter systems utilized include: • MMTV-luciferase: AR-dependent • ARE-luciferase: AR-dependent • GRE-luciferase: glucocorticoid receptor (GR)-dependent • CRE-luciferase: CREB-dependent • AP1-luciferase: AP1 (jun and fos family)-dependent: • AR-TAD-luciferase: dependent on AR transactivation domain • CREB-TAD-luciferase: dependent on CREB transactivation domain • JUN-TAD-luciferase: dependent on c-Jun transactivation domain

[2] = test system: AR-null (AR-negative) prostate cancer cell lines; experiment: MTT cell viability assay, AR-negative cells; conditions: growth inhibition grade, 6 days
Description: as §1, §2, §3

[3] = biological target: T2, full-length AR overexpressed in LNCaP-AR cells (Homo sapiens, UniProt P10275); experiment: Western blot protein degradation with cycloheximide, LNCaP-AR cells
T2 construct: the full-length AR overexpressed in LNCaP-AR cells; expressed in transfected cells; host or cells: LNCaP-AR cells
Description: (§6) LNCaP-AR cells were treated with JN103 and cycloheximide (to inhibit translation) at the indicated doses and times (FIG. 11A). Cell protein was subjected to Western blotting for the indicated proteins. The same tests were performed on LNCaP-95 cells, HEK-293 cells engineered to ectopically express ARΔ567, PC3 cells, and T47D breast cancer cells.

PC3 cell = experiment: Colony formation assay, PC3; conditions: PC3, at high concentrations, two weeks
Description: (§7) DU145, PC3LNCaP-AR (full-length AR), 22Rv1 (full-length and splice variant AR), and VCaP cells (400 cells/well of 6-well plate) were treated with indicated 0 (pure DMSO), 2, 4, 6, 8, 10 μm of JN103 for two weeks. Colonies were visualized with methylene blue staining.

AR = biological target: T3, AR (Homo sapiens, UniProt P10275); experiment: Western blot protein degradation, T47D breast cancer cells, AR; conditions: breast cancer cell line that co-expresses AR, ER, and PR (T47D)
T3 construct: a breast cancer cell line that co-expresses AR, ER, and PR; endogenous in cells; host or cells: T47D breast cancer cells
Description: as §6

[4] = test system: AR transcriptional program; experiment: Whole transcriptomic RNA-sequencing, gene set expression analysis; conditions: LNCaP-AR and 22Rv1 cells, 10 μM, 8 hours
Description: Negative enrichment scores (NES are shown for the AR transcriptional program.
Whole transcriptomic RNA-sequencing was performed for two castration resistant cell lines (LNCaP-AR and 22Rv1), which were exposed to JN103 (10 μM) for 8 hours. The experimental results as determined by gene set expression analysis (FIG. 10) show negative enrichment scores (NES) for the AR transcriptional program.

AR-null DU145 cells = experiment: Colony formation assay, DU145; conditions: DU145, 2-10 μm, two weeks
Description: as §7

ER or PR = experiment: Western blot protein degradation, T47D breast cancer cells, ER and PR; conditions: breast cancer cell line that co-expresses AR
Description: as §6

ARΔ567 = biological target: T4, ARΔ567 (Homo sapiens, UniProt P10275); experiment: Western blot protein degradation with cycloheximide, HEK-293 cells; conditions: ectopically expressed
T4 construct: expressed in transfected cells; host or cells: HEK-293 cells
Description: as §6

[5] = test system: breast cancer cell line (T47D); experiment: MTT assay on non-prostate cancer cell lines; conditions: 2-8 μm, 5 days
Description: The growth-inhibitory effects of JN103 were also assessed in MTT assays on 20 non-prostate cancer cell lines. (FIG. 13). Cells were exposed to 0 (pure DMSO), 2, 4, 6, and 8 μm of JN103 for 5 days and subjected to MTT assay to determine cell viability. Results are means of quadruplicates.

[6] = test system: VCaP (full-length and splice variant AR); experiment: Colony formation assay, VCaP; conditions: 2-10 μm, two weeks
Description: as §7

full-length AR and AR-V7 = experiment: Western blot protein degradation with cycloheximide, LNCaP-95 cells; conditions: endogenously expressed
Description: as §6

[7] = test system: LNCaP-AR (full-length AR); experiment: Colony formation assay, LNCaP-AR; conditions: 2-10 μm, two weeks
Description: as §7

[8] = test system: 22Rv1 (full-length and splice variant AR); experiment: Colony formation assay, 22Rv1; conditions: 22Rv1, 2-10 μm, two weeks
Description: as §7

actin or the GR = experiment: Western blot protein degradation, other proteins; conditions: FIGS. 11(A)-11(D)
Description: as §6

[9] = test system: CREB transactivation domain; experiment: CREB-TAD-luciferase reporter assay; conditions: inhibition grade
Description: (§8) The biochemical assays include reporter assays to determine the activity and specificity of these JN compounds to inhibit the transcriptional activity of the androgen receptor (AR). The reporter assays were conducted in various cell lines that either endogenously or exogenously express the full-length AR and ARV7, a constitutively active splice variant that is resistant to all clinically available AR targeting compounds. The reporter assays were performed in replicates and across a wide range of concentrations (generally […]).
as §5

[10] = biological target: AR transactivation domain (Homo sapiens, UniProt P10275); experiment: AR-TAD-luciferase reporter assay; conditions: inhibition grade
Description: as §4, §5

[11] = biological target: glucocorticoid receptor (GR) (Homo sapiens, UniProt P04150); experiment: GRE-luciferase reporter assay; conditions: GR-dependent, inhibition grade
Description: as §8, §5

[12] = test system: c-Jun transactivation domain; experiment: JUN-TAD-luciferase reporter assay; conditions: inhibition grade
Description: as §8, §5

AP1 (jun and fos family) = experiment: AP1-luciferase reporter assay; conditions: inhibition grade
Description: as §8, §5

glucocorticoid receptor (GR), sequence (P04150 whole entry, species assumed): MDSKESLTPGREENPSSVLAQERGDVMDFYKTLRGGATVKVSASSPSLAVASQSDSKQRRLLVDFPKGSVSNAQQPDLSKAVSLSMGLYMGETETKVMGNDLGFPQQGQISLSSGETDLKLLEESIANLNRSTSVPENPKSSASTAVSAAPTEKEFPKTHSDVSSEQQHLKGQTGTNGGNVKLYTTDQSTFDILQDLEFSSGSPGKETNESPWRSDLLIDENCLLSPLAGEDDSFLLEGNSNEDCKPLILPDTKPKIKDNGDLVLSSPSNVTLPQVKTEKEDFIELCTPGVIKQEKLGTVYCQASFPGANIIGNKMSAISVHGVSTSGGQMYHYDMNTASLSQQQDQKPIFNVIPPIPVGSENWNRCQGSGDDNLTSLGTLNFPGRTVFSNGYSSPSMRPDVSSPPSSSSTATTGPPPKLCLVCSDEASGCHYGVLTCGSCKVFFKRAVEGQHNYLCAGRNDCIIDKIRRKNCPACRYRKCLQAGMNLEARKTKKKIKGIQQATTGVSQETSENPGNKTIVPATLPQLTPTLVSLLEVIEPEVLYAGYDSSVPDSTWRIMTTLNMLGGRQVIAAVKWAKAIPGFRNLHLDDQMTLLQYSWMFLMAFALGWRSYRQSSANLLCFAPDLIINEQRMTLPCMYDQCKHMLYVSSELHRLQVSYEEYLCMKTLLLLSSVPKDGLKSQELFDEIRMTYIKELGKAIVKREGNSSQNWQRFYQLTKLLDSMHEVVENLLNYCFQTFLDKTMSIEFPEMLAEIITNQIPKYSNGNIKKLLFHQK
T1 sequence (P10275 whole entry): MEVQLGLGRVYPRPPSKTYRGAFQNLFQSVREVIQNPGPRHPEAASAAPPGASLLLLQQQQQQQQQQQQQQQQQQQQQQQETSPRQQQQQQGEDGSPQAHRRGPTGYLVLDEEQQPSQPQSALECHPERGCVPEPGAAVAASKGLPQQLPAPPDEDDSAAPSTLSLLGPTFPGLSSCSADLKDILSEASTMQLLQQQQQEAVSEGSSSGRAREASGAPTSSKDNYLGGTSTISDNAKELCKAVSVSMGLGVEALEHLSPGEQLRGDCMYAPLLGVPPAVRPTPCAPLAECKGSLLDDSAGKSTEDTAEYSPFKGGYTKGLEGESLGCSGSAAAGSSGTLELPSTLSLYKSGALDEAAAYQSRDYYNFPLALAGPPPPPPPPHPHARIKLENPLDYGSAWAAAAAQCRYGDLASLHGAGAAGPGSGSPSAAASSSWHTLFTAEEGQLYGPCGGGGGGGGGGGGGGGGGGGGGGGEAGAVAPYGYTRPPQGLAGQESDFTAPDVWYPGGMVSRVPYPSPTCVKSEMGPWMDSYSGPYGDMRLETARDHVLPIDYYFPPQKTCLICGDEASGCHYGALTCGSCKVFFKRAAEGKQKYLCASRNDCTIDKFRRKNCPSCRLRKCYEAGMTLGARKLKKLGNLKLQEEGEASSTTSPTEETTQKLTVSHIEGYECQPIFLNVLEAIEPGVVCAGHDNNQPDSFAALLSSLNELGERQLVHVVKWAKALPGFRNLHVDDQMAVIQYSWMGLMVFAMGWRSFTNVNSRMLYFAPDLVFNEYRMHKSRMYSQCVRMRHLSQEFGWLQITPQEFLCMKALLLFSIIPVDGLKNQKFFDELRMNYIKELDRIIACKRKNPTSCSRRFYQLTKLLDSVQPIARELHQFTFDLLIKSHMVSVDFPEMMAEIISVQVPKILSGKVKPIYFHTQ
T4 sequence (P10275 with tags, fused parts or gaps limits assumed): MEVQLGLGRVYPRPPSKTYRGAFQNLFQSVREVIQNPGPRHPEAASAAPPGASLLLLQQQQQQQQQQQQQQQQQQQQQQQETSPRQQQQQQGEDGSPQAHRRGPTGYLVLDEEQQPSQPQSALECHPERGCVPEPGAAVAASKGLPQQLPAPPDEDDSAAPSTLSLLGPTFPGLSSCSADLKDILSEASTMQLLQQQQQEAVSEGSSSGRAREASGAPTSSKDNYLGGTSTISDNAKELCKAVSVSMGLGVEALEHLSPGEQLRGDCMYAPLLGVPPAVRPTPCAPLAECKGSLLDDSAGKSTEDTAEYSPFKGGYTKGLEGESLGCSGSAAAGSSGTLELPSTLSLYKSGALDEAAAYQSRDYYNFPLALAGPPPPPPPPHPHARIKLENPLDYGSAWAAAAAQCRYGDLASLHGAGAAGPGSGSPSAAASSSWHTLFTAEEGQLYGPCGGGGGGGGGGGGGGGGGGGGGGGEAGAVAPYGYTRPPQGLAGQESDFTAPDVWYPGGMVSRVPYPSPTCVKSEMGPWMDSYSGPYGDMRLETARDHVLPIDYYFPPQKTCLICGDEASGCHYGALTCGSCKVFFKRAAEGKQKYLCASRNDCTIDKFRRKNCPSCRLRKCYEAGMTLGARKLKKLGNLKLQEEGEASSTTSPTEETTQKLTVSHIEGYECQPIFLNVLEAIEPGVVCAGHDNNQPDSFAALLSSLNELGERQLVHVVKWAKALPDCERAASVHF
AR transactivation domain, sequence (P10275 1-559 limits assumed): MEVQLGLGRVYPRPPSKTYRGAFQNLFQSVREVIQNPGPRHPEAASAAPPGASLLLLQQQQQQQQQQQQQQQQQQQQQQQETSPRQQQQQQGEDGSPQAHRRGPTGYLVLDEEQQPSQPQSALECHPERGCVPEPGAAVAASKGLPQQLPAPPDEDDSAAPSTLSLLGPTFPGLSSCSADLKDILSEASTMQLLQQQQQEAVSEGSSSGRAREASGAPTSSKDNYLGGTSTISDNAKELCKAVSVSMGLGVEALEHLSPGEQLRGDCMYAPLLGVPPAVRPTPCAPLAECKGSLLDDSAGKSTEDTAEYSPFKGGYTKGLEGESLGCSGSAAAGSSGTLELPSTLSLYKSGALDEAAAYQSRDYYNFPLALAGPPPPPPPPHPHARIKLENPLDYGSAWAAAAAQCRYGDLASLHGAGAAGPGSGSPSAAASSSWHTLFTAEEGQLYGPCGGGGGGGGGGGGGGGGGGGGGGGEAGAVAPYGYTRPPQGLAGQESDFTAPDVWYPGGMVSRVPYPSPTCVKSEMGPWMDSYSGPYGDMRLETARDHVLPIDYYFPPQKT
T2 sequence (P10275 whole entry): as the sequence (P10275 whole entry) above

Row | Structure (SMILES) | MTT AR-Pos [1] | MTT AR Neg [2] | further results
1 | C=C1CC(c2ccc(OC)cc2)=C(c2ccccc2)C1=O [JN053] | LOW | LOW | MMTV (androgen receptor (AR)): MED
2 | C=C(C)C(=O)NC(=O)/C(=C/c1ccc(Cl)cc1)c1ccc(F)cc1 [JN103, (E)-3-(4-Chlorophenyl)-2-(4-fluorophenyl)-N-methacryloylacrylamide] | – | – | degradation of full-length AR [3]: potently induces time- and dose-dependent degradation; colony formation (PC3 cell): only mild effects; degradation of the AR (AR): induces degradation of the AR; AR gene signature (gene set expression analysis) [4]: marked decrease in the AR gene signature; colony formation (AR-null DU145 cells): limited impact on colony formation; degradation of the ER or PR (ER or PR): not the ER or PR; degradation of ARΔ567 (ARΔ567): potently induces time- and dose-dependent degradation; growth inhibition (MTT cell viability) [5]: significant growth inhibition; colony formation [6]: inhibits the growth; degradation of full-length AR and AR-V7 (full-length AR and AR-V7): potently induces time- and dose-dependent degradation; colony formation [7]: inhibits the growth; colony formation [8]: inhibits the growth; degradation of other proteins, including actin or the GR (actin or the GR): does not affect the degradation
3 | C=CC(=O)NC(=O)/C(=C/c1ccc(Cl)cc1)c1ccc(F)cc1 [JN139] | LOW | LOW | –
4 | CCC1=C(C)CN(C(=O)/C(=C/c2ccc(Cl)cc2)c2ccccc2)C1=O [JN140, (E)-1-(3-(4-Chlorophenyl)-2-phenylacryloyl)-3-ethyl-4-methyl-1,5-dihydro-2H-pyrrol-2-one] | HIGH | HIGH | –
5 | O=C1CCCN1C(=O)/C(=C/c1ccc(Cl)cc1)c1ccccc1 [JN141] | LOW | LOW | –
6 | O=C(C1=CCN(Cc2ccccc2)CC1)/C(=C/c1ccc(Cl)cc1)c1ccccc1 [JN142, (E)-1-(1-Benzyl-1,2,3,6-tetrahydropyridin-4-yl)-3-(4-chlorophenyl)-2-phenylprop-2-en-1-one] | LOW | LOW | –
7 | COC1=CC(=O)N(C(=O)/C(=C/c2ccc(Cl)cc2)c2ccc(F)cc2F)C1 [JN143] | LOW | LOW | –
8 | C#CCNC(=O)/C(=C/c1ccc(Cl)cc1)c1ccc(F)cc1F [JN144, (E)-3-(4-Chlorophenyl)-2-(2,4-difluorophenyl)-N-(prop-2-yn-1-yl)acrylamide] | LOW | LOW | –
9 | NS(=O)(=O)NC(=O)/C(=C/c1ccc(Cl)cc1)c1ccc(F)cc1F [JN145, (E)-3-(4-Chlorophenyl)-2-(2,4-difluorophenyl)-N-sulfamoylacrylamide] | LOW | LOW | –
10 | N#CC1(NC(=O)/C(=C/c2ccc(Cl)cc2)c2ccc(F)cc2F)CC1 [JN146] | LOW | LOW | –
11 | O=C(NC(=O)C1CC1)/C(=C/c1ccc(Cl)cc1)c1ccc(F)cc1F [JN147, (E)-N-(3-(4-Chlorophenyl)-2-(2,4-difluorophenyl)acryloyl)cyclopropanecarboxamide] | LOW | LOW | –
12 | Cc1cnc(/C(=C/c2ccc(Cl)cc2)c2ccc(F)cc2F)o1 [JN148, (E)-2-(2-(4-Chlorophenyl)-1-(2,4-difluorophenyl)vinyl)-5-methyloxazole] | LOW | LOW | –
13 | C=C1CN=C(/C(=C/c2ccc(Cl)cc2)c2ccc(F)cc2F)O1 [JN149, (E)-2-(2-(4-Chlorophenyl)-1-(2,4-difluorophenyl)vinyl)-5-methylene-4,5-dihydrooxazole] | LOW | LOW | –
14 | C=C(Cc1ccccc1)C(=O)NC(=O)/C(=C/c1ccc(Cl)cc1)c1ccc(F)cc1F [JN150] | HIGH | HIGH | –
15 | C=C(C)C(=O)OCCOC(=O)/C(=C/c1ccc(Cl)cc1)c1ccc(F)cc1F [JN151] | LOW | LOW | –
16 | C=C(C)C(=O)NC(=O)/C(=C/c1ccc(Cl)cc1)c1ccc(C(F)(F)F)cc1 [JN152] | HIGH | LOW | CREB-TAD [9]: HIGH; AR-TAD [10]: HIGH; MMTV (androgen receptor (AR)): HIGH; GRE [11]: HIGH
17 | C=C(C)C(=O)NC(=O)/C(=C/c1ccc(C(F)(F)F)nc1)c1ccccc1 [JN153] | HIGH | HIGH | –
18 | O=C(/C=C/C(F)(F)F)NC(=O)/C(=C/c1ccc(Cl)cc1)c1ccc(F)cc1F [JN154] | HIGH | LOW | –
19 | O=C(/C=C/c1ccccc1)NC(=O)/C(=C/c1ccc(Cl)cc1)c1ccc(F)cc1F [JN155] | LOW | LOW | –
20 | C=C(C)C(=O)NCCCNC(=O)/C(=C/c1ccc(Cl)cc1)c1ccc(F)cc1F [JN156, (E)-3-(4-Chlorophenyl)-2-(2,4-difluorophenyl)-N-(3-methacrylamidopropyl)acrylamide] | LOW | LOW | –
21 | CNC(=O)c1ccc(N2C(=S)N(c3ccc(C#N)c(C(F)(F)F)c3)C(=O)C2(C)C)cc1F [MDV3100, reference compound] | HIGH | LOW | CREB-TAD [9]: LOW; JUN-TAD [12]: LOW; GRE [11]: LOW; AP1 (AP1 (jun and fos family)): HIGH
